The source of these data is patent US20250382346A1, “NEURONAL PROMOTERS AND USES THEREOF” (priority 2023, published 2025).

The target of one experiment is T1, hM3Dq (Homo sapiens, UniProt P20309, A239G/Y149C).
T1 construct: expressed in transfected cells; host or cells: neurons of C57BL/6J mice or of macaques, transduced in vivo by nigral AAV8R12-G88P3-HA-hM3Dq
As to the kind of experiment: Chemogenetic manipulation of BG direct pathway in mice with hM3Dq: rotations, nigral c-Fos. The format is in vivo. The conditions noted are these: for c-Fos+ cells in the SNr: AAV8R12-G88P3-HA-hM3Dq; for rotation behavior (FIG. 6C), mean±SEM: control vector AAV8R12-G88P3-EYFP, n=5, no effect. As for the experimental part:
Mice were anesthetized with sodium pentobarbital (Nembutal; 80 mg/kg, i.p.), and then placed into a stereotaxic device (KOPF). Eye cream was applied on both corneas to avoid dehydration. The skull above the targeted areas was thinned with a dental drill and carefully removed. Injections were conducted with a 10 μL syringe connected to a 33-Gauge needle (Neuros; Hamilton), using a microsyringe pump (Legato 130, KD Scientific). A total volume of 200 nL virus was injected into the SNr at a speed of 20 nL/min. The coordinates for the SNr were 3.4 mm posterior, 1.3 mm lateral, 4.8 mm ventral to the bregma.
Mice that were used in the behavioral experiments were then implanted with guide cannulas (KOPF) unilaterally aiming at the dorsomedial striatum (0.5 mm anterior, 1.5 mm lateral, 3.5 mm ventral to the bregma). The cannulas were fixed to the skull with dental cement. Stainless steel obturators were inserted into the guide cannulas and were replaced every other day to maintain the patency until infusions were made. Mice were allowed to recover from the surgery for at least 3 weeks before further studies.
Labeling specificity of the retrograde AAV tracers was examined. […] To explore the functional features of retrograde AAV-labeled cells, AAV8R12-G88P3-HA-hM3Dq, which enables neuronal excitation upon clozapine N-oxide (CNO) administration, were injected into the right SNr of C57BL/6J mice. […] Based on the observed infection patterns of retrograde AAV, it was reasoned that the ipsiversive rotations were a consequence of the activation of the right SNr, which is a major inhibitory output center of the BG and was labeled by the locally injected AAV.
Mice were individually handled for 10-20 seconds per day for at least 5 days to habituate them to the experimenter. The open field test was conducted in a test apparatus (50 cm×50 cm×50 cm) with an HD digital camera (Sony) positioned above the arena. On day one, mice were habituated to the apparatus for 10 minutes. On day 2, mice were administrated saline (0.1 mL i.p. or 200 nL intracranially [i.e.] through the guide cannulas). On day 3, mice were administrated with Clozapine-N-oxide (CNO, Hello Bio, HB1807; 0.3 mg/kg i.p. or 200 nL at 100 μM i.e.). All behavioral tests were conducted 30 minutes after injection. During the test, mice were allowed to freely explore the apparatus for 10 minutes. The behavioral data were analyzed with ANY-maze software (Stoelting Co.).

Another experiment deals with T2, rM3Ds (Rattus norvegicus, UniProt P08483, A177S/A238G/A489L/DEL261-437/DEL441-478/E258S/I253V/I483M/INS256[…]/K178L/K182A/K255R/K484R/K486H/L173F/L482A/M480V/R171S/R176Q/R179M/S481M/T174R/T181R/T257A/Y148C).
T2 sequence (P08483 with tags, fused parts or gaps Y148C/R171S/L173F/T174R/R176Q/A177S/K178L/R179M/T181R/K182A/A238G/I253V/K255R/INS256[…]/T257A/E258S/DEL261-437/DEL441-478/M480V/S481M/L482A/I483M/K484R/K486H/A489L): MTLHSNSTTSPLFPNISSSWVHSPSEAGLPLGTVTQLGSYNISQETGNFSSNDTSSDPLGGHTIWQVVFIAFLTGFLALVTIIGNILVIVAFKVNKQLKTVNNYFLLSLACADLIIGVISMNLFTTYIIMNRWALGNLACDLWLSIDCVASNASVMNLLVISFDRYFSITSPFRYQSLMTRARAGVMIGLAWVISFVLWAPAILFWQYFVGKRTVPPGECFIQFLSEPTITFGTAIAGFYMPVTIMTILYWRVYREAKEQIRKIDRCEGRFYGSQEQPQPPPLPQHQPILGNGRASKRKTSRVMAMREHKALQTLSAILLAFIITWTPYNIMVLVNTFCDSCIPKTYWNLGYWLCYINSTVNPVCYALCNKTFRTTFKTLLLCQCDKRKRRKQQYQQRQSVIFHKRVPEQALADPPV
The experiment is described as follows: 6-OHDA parkinsonian mouse model: open field and rotarod. The format is in vivo. More on the design: 2A-EYFP (C); expressed in transfected cells; host or cells: neurons (striatal D1-MSNs) of mice or cynomolgus macaques, transduced in vivo by nigral AAV8R12-G88P7-rM3Ds-2A-EYFP. The following applies: AAV8R12-G88P7-rM3Ds-2A-EYFP, 6-OHDA mice. As for the experimental part: Rodent Parkinson's disease mice models were created through bilateral injection of 6-OHDA using the same methods as described in virus injections (Example 3). A total volume of 1 ul 6-OHDA (5 mg/ml, dissolved in sterile saline containing 0.02% ascorbic acid, Sigma) was injected into the striatum at a speed of 100 nL/min. The coordinates for striatum were 0.5 mm anterior, 1.5 mm lateral, 3.2 mm ventral to the bregma. A premedication of desipramine (25 mg/kg, Sigma) was administered to animals prior to injections of 6-OHDA, in order to increase the selectivity and efficacy of 6-OHDA-induced lesions. Mice were supplemented with DietGel (ClearH2O) for one-week post-surgery. All staining and behavioral experiments were performed at least 14 days following surgery, when the amount of dopamine depletion was maximal and stable.
To investigate the efficacy and safety of D1-MSN specific neuromodulation strategy, AAV8R12-G88P7-rM3Ds-2A-EYFP was injected into the SNr of adult C57/BL6 mice. 6-OHDA was administered bilaterally into the striatum (FIG. 13A). […]
Mice were individually handled for 10-20 seconds per day for at least 5 days to habituate them to the experimenter. […] The behavioral data were analyzed with ANY-maze software (Stoelting Co.).
Mice were individually handled as described in the open field test. […] Latency to fall for each trial was automatically recorded by the apparatus. […]
In general terms: The rotarod test checks motor coordination on a turning rod.

T1 sequence (P20309 whole entry Y149C/A239G): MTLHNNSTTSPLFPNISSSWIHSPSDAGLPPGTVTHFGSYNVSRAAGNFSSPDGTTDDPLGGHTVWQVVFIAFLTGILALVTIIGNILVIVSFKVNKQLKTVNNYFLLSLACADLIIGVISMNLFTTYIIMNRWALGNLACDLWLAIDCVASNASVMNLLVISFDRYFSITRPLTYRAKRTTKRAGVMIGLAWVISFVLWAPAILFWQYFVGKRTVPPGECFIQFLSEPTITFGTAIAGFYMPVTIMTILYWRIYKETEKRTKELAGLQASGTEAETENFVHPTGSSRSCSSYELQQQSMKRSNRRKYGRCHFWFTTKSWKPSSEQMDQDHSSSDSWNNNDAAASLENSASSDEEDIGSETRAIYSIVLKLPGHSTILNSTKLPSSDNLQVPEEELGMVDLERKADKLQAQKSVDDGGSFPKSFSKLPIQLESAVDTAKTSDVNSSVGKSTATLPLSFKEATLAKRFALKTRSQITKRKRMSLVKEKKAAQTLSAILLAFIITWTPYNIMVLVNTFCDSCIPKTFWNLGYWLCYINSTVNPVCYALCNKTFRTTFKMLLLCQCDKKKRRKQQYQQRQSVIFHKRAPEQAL

Turning to `C[N+]1([O-])CCN(C2=Nc3cc(Cl)ccc3Nc3ccccc32)CC1` [CNO, Clozapine-N-oxide], the “rotations (FIG. 6A), mean±SEM; CNO induced ipsiversive rotations” value at hM3Dq (AAV8R12-G88P3-HA-hM3Dq nigral, CNO i.p., saline 45.25±4.128, n=8) stood at 87.84±4.666. The “rotations (FIG. 6A), mean±SEM; CNO induced contraversive rotations” value at hM3Dq (AAV8R12-G88P3-HA-hM3Dq nigral, CNO intracranial into dorsomedial striatum, saline 49.63±5.879, n=8) was 15.08±3.435. The results for the “c-Fos+ cells in the SNr” value at hM3Dq (intracranial CNO infusion) and on hM3Dq (intraperitoneal CNO) were “No significant changes in the number of nigral c-Fos+ cells” and “significant increase in c-Fos+ cells in the right SNr”, respectively. In addition, the “rotation behavior (FIG. 6C), mean±SEM” value on hM3Dq (CNO i.p., saline 47.08±10.5) was found to be 44.72±10.89; on hM3Dq (CNO intracranial, saline 54.22±8.766), 61.39±5.774. Further, the “motor skill, rotarod test” value at rM3Ds (CNO) was “partially rescued the motor skill deficit”. In addition, the “spontaneous movement in an open field” value on rM3Ds (systemic CNO) was “drastically reversed the dyskinesia-like phenotype of PD mice”.
